Data taken from US12559480B2, “Methods of treatment using phenyl indole allosteric inhibitors of P97 ATPase” (University of Pittsburgh—Of the Commonwealth System of …, priority 2015, dated 2026).

Target: p97 ATPase WT (Homo sapiens (Human), UniProt P55072)
Test: p97 ADP-Glo assay
Format: biochemical
Settings: Table 3
Description: ADP-Glo™ (Promega Corp.) is a bioluminescent, homogeneous assay that measures ADP formed from a biochemical reactions. Because of its high sensitivity, the assay is suitable for monitoring enzyme activities at very early substrate conversions requiring very low amount of enzymes.
The ADP-Glo assay can be conducted as described in Chou, T.-F.; Bulfer, S. L.; Weihl, C.

Sequence of p97 ATPase WT (P55072 whole entry): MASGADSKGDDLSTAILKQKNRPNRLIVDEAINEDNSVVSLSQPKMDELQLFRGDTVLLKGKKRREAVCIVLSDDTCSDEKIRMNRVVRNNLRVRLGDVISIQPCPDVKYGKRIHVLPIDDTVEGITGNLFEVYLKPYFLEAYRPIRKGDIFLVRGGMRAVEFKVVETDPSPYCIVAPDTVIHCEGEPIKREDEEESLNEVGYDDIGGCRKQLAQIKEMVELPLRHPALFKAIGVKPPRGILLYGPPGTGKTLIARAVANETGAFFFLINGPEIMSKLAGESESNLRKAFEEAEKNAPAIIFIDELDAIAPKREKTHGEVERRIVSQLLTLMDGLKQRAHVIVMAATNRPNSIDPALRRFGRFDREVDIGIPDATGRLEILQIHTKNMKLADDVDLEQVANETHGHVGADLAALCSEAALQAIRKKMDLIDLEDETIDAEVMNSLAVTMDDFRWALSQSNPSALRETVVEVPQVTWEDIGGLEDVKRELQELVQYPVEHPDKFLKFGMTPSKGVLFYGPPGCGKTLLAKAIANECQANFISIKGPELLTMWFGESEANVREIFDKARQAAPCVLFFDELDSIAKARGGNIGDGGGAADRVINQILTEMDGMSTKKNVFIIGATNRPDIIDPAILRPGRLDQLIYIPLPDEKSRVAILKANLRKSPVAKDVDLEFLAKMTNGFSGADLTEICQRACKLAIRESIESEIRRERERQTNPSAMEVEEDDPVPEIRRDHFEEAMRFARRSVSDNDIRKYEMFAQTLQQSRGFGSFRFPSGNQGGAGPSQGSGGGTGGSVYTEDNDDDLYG

- IC50: 6.2 µM
Structure (SMILES): CC(C)N1CCC(NC2CCN(c3cccc(-c4cc5cc(C#N)ccc5[nH]4)c3)CC2)CC1
